Test results as given in patent US11566260B2, “Potentiating agents for protecting plants from fungal infections” (UNIVERSITE D'ANGERS, priority 2012, dated 2023).

What was measured:
Alternaria brassicicola [1] = test: Test B: potentiating effect with a plant defense molecule on growth of Alternaria brassicicola; format: cell-based
Procedure: Test B: • 1) Determining a non-fungicidal amount of said agent, preferably according to Test A; • 2) Determining a non-fungicidal amount of a plant defense molecule, preferably according to Test A; • 3) Measuring growth of fungal conidia in a medium comprising a combination of a non-fungicidal amount of the agent, as determined in step 1, and a non-fungicidal amount of the plant defense molecule, as determined in step 2. In one embodiment, the growth is measured as follows: Suspensions of fungal conidia (starting material: 10^5 conidia/mL) are cultured in liquid medium, such as, for example, 300 μL of PBD medium, on microplate wells at 25° C. with shaking at 175 rpm for 5 minutes every 10 minutes. Non-fungicidal concentrations of the tested agent and of the tested plant defense molecule are added on wells, and fungal growth is measured during at least 5 hours, preferably at least 10, 20, 30 hours. Methods for measuring fungal growth are well known from the skilled artisan. Examples of such methods include, but are not limited to, photometry, such as, for example, spectrophotometric methods; or nephelometry, such as, for example, laser nephelometry as described in Joubert et al (Biotechniques, 2010, 48:399-404). Growth inhibition is measured by comparing the Area Under Curves (AUC) of treated samples and of untreated controls.
The potentiating effect of chelerythrin is measured in a suspension of conidia treated with a plant defense molecule, camalexin, which is present at a non-fungicidal amount as determined hereinabove. Said non-fungicidal amount is consistent with the amount of camalexin produced by an infected plant organ.
Alternaria brassicicola growth was measured as described hereinabove.
A non-fungicidal amount of chelerythrin (as determined in Example 1a) and/or a non-fungicidal amount of camalexin (as determined in Example 1b) or 10 μL of DMSO are added per well, and growth curves were drawn (FIG. 3).
In the Table 5 below are shown compounds (column 1) having a potentiating effect of a plant defense molecule (column 2) for the inhibition of a pathogenic fungus (column 3). The type of the potentiating agent in this particular situation is given in column 4 (homologous or heterologous). Triads were identified according to Test B.

Alternaria brassicicola [2] = test: In vivo efficacy on cabbage leaves inoculated with Alternaria brassicicola; details: 25 μM chelerythrin in inoculum; intact or prewounded B. oleracea cv Bartolo leaves; 6 dpi; vs DMSO side
Procedure: Example 2 discloses a protocol for determining the in vivo efficacy of the composition of the invention, comprising a potentiating amount of chelerythrin (25 μM), as determined in Example 1.
5 μL drops of Alternaria brassicicola conidia suspension (10^5 to 10^3 conidia/mL) were inoculated on intact or prewounded (i.e wherein the synthesis of plant defense molecules such as Brassinin was naturally triggered by the aggression) leaves of B. oleracea cv Bartolo plants at stages 4-6 leaves per plant. Inocula were deposited on the left and right sides symmetrically from the central vein: inocula comprising 25 μM of chelerythrin were deposited on the right side, and inocula comprising DMSO were deposited on the left side. The plants were then maintained under saturing humidity (100% relative humidity).

[3] = system: S. cerevisiae strain overexpressing Alternaria brassicicola Pkc1; test: Test C: growth of S. cerevisiae strain overexpressing Alternaria brassicicola Pkc1 (pYES-PKC); format: cell-based, Saccharomyces cerevisiae; details: pYES2-PKC; for Area under the curve: inducing medium, OD 600 nm
Procedure: (§1) Test C is based on the essential role of Pkc1 in fungal cells: if its essential function is inhibited, the growth of the fungal cells will be affected. Therefore, in Test C, two different strains of S. cerevisiae are cultured in the presence of the tested compound: the first one is a wild-type strain, whereas the second overexpresses the fungal Pkc1 gene. If the tested compound is an inhibitor of the fungal Pkc1 protein, the growth of the wild-type strain will be inhibited, whereas the induction of the overexpression of the heterologous fungal Pkc1 gene will restore, at least partially, the growth rate. Test C is carried out in Example 3.
Construction of a S. cerevisiae strain overexpressing Alternaria brassicicola Pkc1 The cDNA encoding the Pkc1 gene of Alternaria brassicicola (http://genome.jgi-psf.org/Altbr1/Altbr1.home.html; sequence ref: AB07449.1) was amplified by PCR and cloned into a pYES2-CT vector (Invitrogen, Paisley, UK). The resulting vector (pYES-PKC) was inserted in a BY4743 strain of Saccharomyces cerevisiae.
(§2) Growth of this strain was monitored in an inducing medium (GS uracil-free medium supplemented with galactose) in presence of increasing concentrations of chelerythrin (0, 25, 50 or 75 μM), and was compared with the growth of a control strain (BY4743 strain transformed with the empty pYES2-CT vector). Growth was measured by spectrometry (Optic density: 600 nm). Inhibition of growth was assessed by comparison of the area under the curves.

[4] = system: BY4743 strain transformed with the empty pYES2-CT vector; test: Test C: growth of S. cerevisiae control strain (empty pYES2-CT vector); format: cell-based, Saccharomyces cerevisiae; details: for Area under the curve: OD 600 nm
Procedure: as §1, §2

[5] = system: BY4743 strain of Saccharomyces cerevisiae; test: Test D: growth of S. cerevisiae BY4743 in normal and high osmotic pressure conditions; format: cell-based
Procedure: Test D is based on the fact that the protein Pkc1 is implied in the CWI pathway. In a situation where the CWI pathway is impaired, growth of fungal cells is less affected by a high osmotic pressure. Consequently, in Test D, a S. cerevisiae strain is cultured in conditions of high osmotic pressure, in the presence or in absence of the tested compound. If said compound is a Pkc1 inhibitor, it will inhibit the growth of cells in normal osmotic pressure conditions, but not, or less, in high osmotic pressure conditions. Test D is carried out in Example 3.
The growth of a BY4743 strain of Saccharomyces cerevisiae on a liquid SD medium comprising increasing concentrations of chelerythrin (0, 10, 15, 20 or 25 μM) was monitored and compared to the growth of the same strain on a liquid SD medium containing 1M of sorbitol (high osmotic pressure conditions) in presence of increasing concentrations of chelerythrin.
Growth was measured by spectrometry (optic density: 600 nm) Inhibition of growth was assessed by comparison of the area under the curves.

COc1ccc2c(c[n+](C)c3c4cc5c(cc4ccc23)OCO5)c1OC [Chelerythrin]
inhibition of Alternaria brassicicola growth by the combination (Alternaria brassicicola [1]; 25 μM chelerythrin combined with 10 μM camalexin, both non-fungicidal amounts): drastic inhibition | Type of potentiating agent (compound having a potentiating effect of the plant defense molecule) (Alternaria brassicicola [1]; plant defense molecule Brassinin, Alternaria brassicicola): Homologous | Type of potentiating agent (compound having a potentiating effect of the plant defense molecule) (Alternaria brassicicola [1]; plant defense molecule Camalexin, Alternaria brassicicola): Homologous | potentiating amount (Alternaria brassicicola [1]; with non-fungicidal amount of camalexin, Alternaria brassicicola): 25 µM | fungal infection of cabbage leafs (Alternaria brassicicola [2]): limits in vivo the fungal infection | inhibition at 25 µM ([3]; 25 μM chelerythrin): 15% | Area under the curve ([3]; 25 μM chelerythrin): 10.7 | inhibition at 50 µM ([3]; 50 μM chelerythrin): 25% | Area under the curve ([3]; 50 μM chelerythrin): 9.4 | inhibition at 75 µM ([3]; 75 μM chelerythrin): 30% | Area under the curve ([3]; 75 μM chelerythrin): 8.8 | Area under the curve ([4]; 25 μM chelerythrin): 8.6 | Area under the curve ([4]; 50 μM chelerythrin): 3.2 | Area under the curve ([4]; 75 μM chelerythrin): 2.5 | inhibition at 25 µM ([4]; Saccharomyces cerevisiae, 25 μM chelerythrin): 43% | inhibition at 50 µM ([4]; Saccharomyces cerevisiae, 50 μM chelerythrin): 79% | inhibition at 75 µM ([4]; Saccharomyces cerevisiae, 75 μM chelerythrin): 84% | Area under the curve ([5]; SD + Sorbitol (1M, high osmotic pressure), 10 μM chelerythrin): 5.2 | Area under the curve ([5]; SD + Sorbitol (1M, high osmotic pressure), 15 μM chelerythrin): 5.0 | Area under the curve ([5]; SD + Sorbitol (1M, high osmotic pressure), 20 μM chelerythrin): 2.0 | Area under the curve ([5]; SD medium, 10 μM chelerythrin): 14.3 | Area under the curve ([5]; SD medium, 15 μM chelerythrin): 11.8 | Area under the curve ([5]; SD medium, 20 μM chelerythrin): 10.4 | Area under the curve ([5]; SD medium, 25 μM chelerythrin): 8.1 | inhibition at 10 µM ([5]; Saccharomyces cerevisiae, SD + Sorbitol (1M, high osmotic pressure), 10 μM chelerythrin): -3% | inhibition at 15 µM ([5]; Saccharomyces cerevisiae, SD + Sorbitol (1M, high osmotic pressure), 15 μM chelerythrin): 1% | inhibition at 20 µM ([5]; Saccharomyces cerevisiae, SD + Sorbitol (1M, high osmotic pressure), 20 μM chelerythrin): 0% | inhibition at 10 µM ([5]; Saccharomyces cerevisiae, SD medium, 10 μM chelerythrin): 10% | inhibition at 15 µM ([5]; Saccharomyces cerevisiae, SD medium, 15 μM chelerythrin): 26% | inhibition at 20 µM ([5]; Saccharomyces cerevisiae, SD medium, 20 μM chelerythrin): 35% | inhibition at 25 µM ([5]; Saccharomyces cerevisiae, SD medium, 25 μM chelerythrin): 49%
